According to article PMC9977316, “The kidney drug transporter OAT1 regulates gut microbiome–dependent host metabolism” (JCI Insight, 2023):

Key:
OAT1 [1] = biological target: T1, OAT1 (Homo sapiens, UniProt Q4U2R8); parameters: The full-length protein was expressed as GFP fusion in HEK293 cells to check for protein expression; GFP; FLAG (inferred from capture on anti-flag antibody beads); made in house; host or cells: HEK293 cells, third-generation lentiviral vector; settings: cited from earlier work
T1 sequence (Q4U2R8 1-563): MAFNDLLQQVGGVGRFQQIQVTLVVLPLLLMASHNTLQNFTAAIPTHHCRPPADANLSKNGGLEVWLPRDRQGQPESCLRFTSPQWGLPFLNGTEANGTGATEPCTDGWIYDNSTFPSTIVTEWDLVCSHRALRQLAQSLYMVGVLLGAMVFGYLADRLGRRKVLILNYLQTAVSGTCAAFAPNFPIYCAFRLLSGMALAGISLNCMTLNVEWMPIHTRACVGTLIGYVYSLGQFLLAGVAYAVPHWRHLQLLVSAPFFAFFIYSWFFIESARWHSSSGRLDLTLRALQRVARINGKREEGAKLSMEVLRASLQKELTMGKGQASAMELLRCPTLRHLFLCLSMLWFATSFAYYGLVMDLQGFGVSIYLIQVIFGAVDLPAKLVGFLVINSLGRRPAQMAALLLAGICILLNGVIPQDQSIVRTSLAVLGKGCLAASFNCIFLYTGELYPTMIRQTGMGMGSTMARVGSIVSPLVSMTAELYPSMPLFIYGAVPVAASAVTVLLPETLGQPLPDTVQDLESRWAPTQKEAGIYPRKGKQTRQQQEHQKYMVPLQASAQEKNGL

OAT1 [2] = biological target: T2, OAT1 (Mus musculus, UniProt Q8VC69); assay: Tc-99m MAG3 imaging and postmortem γ counts in Oat1-KO and WT mice; type: in vivo; settings: WT vs Oat1-KO
T2 construct: from tissue; host or cells: living mice (kidney proximal tubule); Oat1-KO versus WT
T2 sequence (Q8VC69 1-545): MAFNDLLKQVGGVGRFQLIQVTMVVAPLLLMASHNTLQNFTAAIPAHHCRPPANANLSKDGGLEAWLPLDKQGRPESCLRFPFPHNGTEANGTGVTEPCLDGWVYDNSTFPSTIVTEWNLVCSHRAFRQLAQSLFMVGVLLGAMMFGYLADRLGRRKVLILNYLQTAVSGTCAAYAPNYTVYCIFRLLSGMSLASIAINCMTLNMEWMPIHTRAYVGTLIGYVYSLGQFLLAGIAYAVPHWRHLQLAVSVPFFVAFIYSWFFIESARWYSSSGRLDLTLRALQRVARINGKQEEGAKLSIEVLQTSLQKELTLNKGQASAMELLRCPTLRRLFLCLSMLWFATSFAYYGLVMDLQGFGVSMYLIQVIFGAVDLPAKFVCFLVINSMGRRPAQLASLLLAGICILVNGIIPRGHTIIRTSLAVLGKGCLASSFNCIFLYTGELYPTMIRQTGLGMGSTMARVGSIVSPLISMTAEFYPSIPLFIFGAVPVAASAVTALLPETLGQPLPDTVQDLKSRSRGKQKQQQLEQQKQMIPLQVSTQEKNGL
Experimental: Live-imaging experiments were performed with the In Vivo Imaging Shared Resource at the Moore’s Cancer Center at the UCSD. Mice were transported from the vivarium to the In Vivo Imaging Shared Resource. In total, 100 μCi of Tc-99m MAG3 was injected by tail vein into mice prior to imaging. Adult, male KO (n = 5) and WT mice (n = 5) were imaged in 5 separate pairs containing 1 KO mouse and 1 WT mouse each. Mice were initially weighed and anesthetized (2% isoflurane, 200 mL/min flow of O2). Mice were placed on their backs on the high-resolution γ imager (γ imager; BioSpace) fitted with a high-resolution, low-energy collimator. For 30 minutes, time-activity curves were collected from the kidneys, liver, and bladder. Following imaging, blood, urine, kidneys, liver, and spleen were isolated and weighed from each mouse for radioactive assessment using a γ counter.

NCCc1c[nH]c2ccc(O)cc12 [Serotonin]
In vitro cell–based transport assay (OAT1 [1]): × (17)

Tc-99m mercaptoacetyl-triglycine [Tc-99m MAG3]
bladder levels, postmortem γ counts scaled to weight (OAT1 [2]; 4 of 5 pairs): higher in the WT mice | blood levels, postmortem γ counts scaled to weight (OAT1 [2]; 4 of 5 pairs): higher in the KO mice | time to maximal bladder levels (OAT1 [2]; tail-vein injection, 30 minutes, γ camera): WT bladders reached their maximal levels of Tc-99m MAG3 more quickly than the Oat1-KO mice
